# Test results from PMC10860701 (ACS Medicinal Chemistry Letters, 2024).
# Entries after “also recorded” stand apart in the source; their conditions may differ.
# Experiments:
# [1] = tested on: HT-22 cells; assay: TNFα-induced ROS; assay type: cell-based, mouse; details: for effect on TNFα-induced ROS, in words / ROS suppression at 40 μM: 1 μg/mL TNFα; for effect on TNFα-induced ROS, in words: all concentrations tested; for ROS suppression at 40 μM: 40 μM compound, Figure 4A
# [2] = tested on: THP-1 cells; assay: Measurement of cellular NAD+ levels in THP-1 cell cultures; assay type: cell-based, human; details: for ability to raise NAD+ levels compared with parent NP-A3-B2: initial screening, 3 μM, 24 h, data not shown
# [3] = molecular target: NAMPT (Homo sapiens, UniProt P43490); assay: NAMPT coupled enzyme activity assay; assay type: biochemical
# [4] = tested on: HT-22 cells; assay: Glutamate-induced ROS; assay type: cell-based, mouse; details: 75 mM glutamate, 20 μM and 40 μM compound, Figure 4D
# NAMPT, sequence (P43490 whole entry): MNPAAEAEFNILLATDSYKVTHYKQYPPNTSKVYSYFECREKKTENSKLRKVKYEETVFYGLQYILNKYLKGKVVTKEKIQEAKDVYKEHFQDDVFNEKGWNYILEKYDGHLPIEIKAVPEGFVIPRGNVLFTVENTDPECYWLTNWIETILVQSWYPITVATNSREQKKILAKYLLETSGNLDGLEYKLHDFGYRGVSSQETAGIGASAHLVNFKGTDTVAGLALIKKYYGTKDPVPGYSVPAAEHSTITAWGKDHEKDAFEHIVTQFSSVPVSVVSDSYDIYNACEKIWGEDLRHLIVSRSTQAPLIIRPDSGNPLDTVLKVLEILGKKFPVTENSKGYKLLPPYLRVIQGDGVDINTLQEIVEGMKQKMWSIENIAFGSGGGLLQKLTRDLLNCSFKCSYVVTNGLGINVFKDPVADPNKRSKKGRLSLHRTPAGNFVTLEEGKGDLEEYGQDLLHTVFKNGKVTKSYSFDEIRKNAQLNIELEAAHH
smiles,measurement,setting,value
COc1ccc(CN(CCC2(C(C)C)CCOC(C)(C)C2)C(=O)c2ccsc2)cc1 (stereo not shown) [JGB-1-127],"effect on TNFα-induced ROS, in words",[1],did not inhibit ROS generation
CC(C)C1(CCN(Cc2ccc3[nH]ccc3c2)C(=O)c2ccco2)CCOC(C)(C)C1 (stereo not shown) [JGB-1-134],ability to raise NAD+ levels compared with parent NP-A3-B2,[2],significantly greater ability to raise NAD^+ levels
same,"effect on TNFα-induced ROS, in words",[1],did not inhibit ROS generation
COc1ccc(CN(CCC2(C(C)C)CCOC(C)(C)C2)C(=O)c2cccs2)cc1 (stereo not shown) [JGB-1-137],ROS suppression at 40 μM,[1],significantly suppressed ROS
COc1ccc(CN(CCC2(C(C)C)CCOC(C)(C)C2)C(=O)c2cnc[nH]2)cc1 (stereo not shown) [JGB-1-147],"NAMPT enzyme activity, in words",[3],inhibitory activity; also recorded: inhibits NAMPT
CC(C)C1(CCN(Cc2ccc(N(C)C)cc2)C(=O)c2ccco2)CCOC(C)(C)C1 (stereo not shown) [JGB-1-155],concentration response for FK866 in the presence of compound,"[2]; THP-1 NAD+, Figure 3B",right-shifted
same,potency in THP-1 cell cultures relative to NP-A3-B2,"[2]; full concentration-response, NAD+",improved potency
same,ability to raise NAD+ levels compared with parent NP-A3-B2,[2],significantly greater ability to raise NAD^+ levels
same,ROS levels under glutamate insult,[4],decreased ROS levels below that of the vehicle-treated control
same,ROS suppression at 40 μM,[1],significantly suppressed ROS
same,"reduction of TNFα-induced ROS, confirmation assay","[1]; 20 μM and 40 μM compound, Figure 4B",significant reduction
COc1ccc(CN(CCC2(C(C)C)CCOC(C)(C)C2)C(=O)c2ccco2)cc1 (stereo not shown) [NP-A3-B2],ROS suppression at 40 μM,[1],significantly suppressed ROS
"O=C(NCc1ccncc1)Nc1ccc(S(=O)(=O)N2CC3CCC(C2)O3)cc1 [SBI-797812, reference compound]","effect on TNFα-induced ROS, in words",[1],no significant effect on ROS
